Earlier results on one compound are cited in patent US20240148640A1, “TOPICAL OXYBUTYNIN FOR HOT FLASHES” (CELISTA PHARMACEUTICALS LLC, priority 2022, published 2024).

Take `CCN(CC)CC#CCOC(=O)C(O)(c1ccccc1)C1CCCCC1` (centres unmarked) [oxybutynin]: where the note is “given orally (Leon-Ferre et al., 2020)”, the “reduction of hot flashes” value is recorded as 75%. Further, the “frequency and intensity of hot flashes” value (women with frequent hot flashes, incl. breast cancer survivors on tamoxifen or aromatase inhibitors (Kligman et al., 2010)) is “reduced the frequency and intensity of hot flashes”.
